Measured values reported in paper PMC6385376, “Coupling of a viral K^+-channel with a glutamate-binding-domain highlights the modular design of ionotropic glutamate-receptors” (Communications Biology, 2019).
Values joined by “and” are separate entries in the source; they are usually repeats but may differ in a detail not shown here. Equal values may be shown once. Read-outs that look alike come from different tables or passages of the source.

Tests used:
Assay type in all cases: cell-based
[1] = tested on: GluATCVshort (GluA1/KcvATCV-1 chimera); test: Two-electrode voltage clamp of GluATCVshort expressing Xenopus oocytes
Text: (§1) The GluATCV constructs were generated by replacing the nucleotide sequence encoding amino acids 538–629 (GluATCVlong), 634 (GluATCV short) and 642 (GluATCV) of the mature GluA1 by the KcvATCV-1 sequence with the use of XhoI and NheI. The GluATCV^ΔNTD and GluATCV^ΔM4 constructs were generated by excising the nucleotide sequence encoding amino acids 19–394 and upstream of 784 of the mature GluA1 by deletion PCR, respectively. All constructs were confirmed by DNA sequencing (Seqlab, Göttingen, Germany).
(§2) cRNAs were synthesized by using the AmpliCap-Max™ T7 High Yield Message Maker Kit of Cellscript (Madison, Wi, USA) with the plasmid linearized by AatII. X. laevis oocytes were used for two electrode voltage-clamp (TEVC) electrophysiology as previously described. […] The TEVC recordings were performed at room temperature with an Axoclamp 900A amplifier, digitized with a Digidata 1550A at 5 kHz after low-pass filtering at 200 Hz and recorded with Clampex 10.7 (Molecular Devices, San Jose, USA). […]
(§3) Permeability ratio was calculated by the shift of the reversal potential with the Goldman–Hodgkin–Katz equation under bi-ionic conditions PNa^+/PK^+=expΔErev*F/R*T [27]. The amplitude was measured with KielPatch and also the open probability in bilayer measurements was analyzed by the build in Hinkley-jump-detector of KielPatch (http://www.zbm.uni-kiel.de/aghansen/software.html). […]

[2] = tested on: GluATCV (GluA1/KcvATCV-1 chimera); test: Two-electrode voltage clamp of GluATCV expressing Xenopus oocytes
Text: as §1
(§4) cRNAs were synthesized by using the AmpliCap-Max™ T7 High Yield Message Maker Kit of Cellscript (Madison, Wi, USA) with the plasmid linearized by AatII. X. laevis oocytes were used for two electrode voltage-clamp (TEVC) electrophysiology as previously described. Oozytes were surgically obtained from female X. laevis after anesthesia with 0.1% Tricaine in water under the approval of the Technical University of Darmstadt (Agreement V54-19c20/15 DA8/Anz. 20). After the harvest, oocytes were incubated for 1 h in 0.8 mg collagenase in frog ringer [96 mM NaCl, 2 mM KCl, 1 mM CaCl2,1 mM MgCl2, and 5 mM HEPES (pH 7.4 with NaOH)][53]. After the treatment and a washing step with Ca^2+ free ringer [96 mM NaCl, 2 mM KCl,1 mM MgCl2, and 5 mM HEPES (pH 7.4 with NaOH)] oocytes of stage V and VI were selected and defolliculated by pipetting with a burned glass-Pasteur-pipette. For electrophysiological analysis, oocytes were injected with 50 ng in a volume of 50 nl of the respective construct. After injection the oocytes were incubated in ND-96 solution (96 mM NaCl, 2 mM KCl, 1 mM CaCl2, 1 mM MgCl2, 5 mM HEPES, pH 7.4 with NaOH) at 18 °C for 3–5 days until the electrophysiological measurements. The TEVC recordings were performed at room temperature with an Axoclamp 900A amplifier, digitized with a Digidata 1550A at 5 kHz after low-pass filtering at 200 Hz and recorded with Clampex 10.7 (Molecular Devices, San Jose, USA). For recording the microelectrodes were filled with 3 M KCl (resistance 0.8–2.8 MΩ in external solution) and the oocytes were clamped at −70 mV. The external solution was a modified ringer solution containing 100 mM KCl; 10 mM HEPES; 1.8 mM CaCl2; 1 mM MgCl2 (pH 7.4 with KOH) alone or containing agonist.
(§5) Permeability ratio was calculated by the shift of the reversal potential with the Goldman–Hodgkin–Katz equation under bi-ionic conditions PNa^+/PK^+=expΔErev*F/R*T [27]. The amplitude was measured with KielPatch and also the open probability in bilayer measurements was analyzed by the build in Hinkley-jump-detector of KielPatch (http://www.zbm.uni-kiel.de/aghansen/software.html). Values given represent means ± SEM. Statistical significance was determined at the p < 0.05 (*), p < 0.01 (**), and p < 0.001 (***) levels using a Student’s two-tailed, unpaired two-side t-test or ANOVA (in case of more groups) and a Tukey post-hoc analysis (Prism 7.00). All data are shown as boxplots with a center line representing the median; box limits are the upper and lower quartiles; whiskers representing min and max.

[3] = target: GluATCV* (GluATCV G614S/F615L) (Rattus norvegicus, UniProt P19490, L497Y); conditions: GluATCV* oocytes; for Glutamate-induced fraction of the Ba^2+-block (IGlu/IBa): fraction of total Ba^2+-sensitive current
Text: as §1, §4, §5

[4] = target: T1, GluA1 glutamate receptor carrying the mutation L479Y (Rattus norvegicus, UniProt P19490, L497Y); test: Two-electrode voltage clamp of GluA1 expressing Xenopus oocytes; conditions: CNQX IC50, GluA1 (L479Y) oocytes, in the presence of 5 µM glutamate (EC50), n = 5
T1 construct: expressed in transfected cells; host or cells: Xenopus laevis oocytes (cRNA injection)
Text: as §1, §2, §3

[5] = tested on: GluATCVlong (GluA1/KcvATCV-1 chimera); test: Two-electrode voltage clamp of GluATCVlong expressing Xenopus oocytes
Text: as §1
as §2, with “described. Oozytes were surgically obtained from female X. laevis after anesthesia with 0.1% Tricaine in water under the approval of the Technical University of Darmstadt (Agreement V54-19c20/15 DA8/Anz. 20). After the harvest, oocytes were incubated for 1 h in 0.8 mg collagenase in frog ringer [96 mM NaCl, 2 mM KCl, 1 mM CaCl2,1 mM MgCl2, and 5 mM HEPES (pH 7.4 with NaOH)][53].” for “described.”

GluATCV*^ΔNTD = GluATCV*^ΔNTD (Rattus norvegicus, UniProt P19490, L497Y); conditions: GluATCV*^ΔNTD oocytes, saturating glutamate concentrations, n = 5
Text: as §1, §4, §5

Sequence of GluATCV* (GluATCV G614S/F615L) (A7K9J5 entry or part of it G77S/F78L): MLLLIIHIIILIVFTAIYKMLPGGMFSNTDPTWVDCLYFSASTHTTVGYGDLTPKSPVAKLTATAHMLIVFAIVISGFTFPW
Sequence of GluATCV* (GluATCV G614S/F615L) (P19490 other isoform, or with tags, fused parts or gaps L497Y): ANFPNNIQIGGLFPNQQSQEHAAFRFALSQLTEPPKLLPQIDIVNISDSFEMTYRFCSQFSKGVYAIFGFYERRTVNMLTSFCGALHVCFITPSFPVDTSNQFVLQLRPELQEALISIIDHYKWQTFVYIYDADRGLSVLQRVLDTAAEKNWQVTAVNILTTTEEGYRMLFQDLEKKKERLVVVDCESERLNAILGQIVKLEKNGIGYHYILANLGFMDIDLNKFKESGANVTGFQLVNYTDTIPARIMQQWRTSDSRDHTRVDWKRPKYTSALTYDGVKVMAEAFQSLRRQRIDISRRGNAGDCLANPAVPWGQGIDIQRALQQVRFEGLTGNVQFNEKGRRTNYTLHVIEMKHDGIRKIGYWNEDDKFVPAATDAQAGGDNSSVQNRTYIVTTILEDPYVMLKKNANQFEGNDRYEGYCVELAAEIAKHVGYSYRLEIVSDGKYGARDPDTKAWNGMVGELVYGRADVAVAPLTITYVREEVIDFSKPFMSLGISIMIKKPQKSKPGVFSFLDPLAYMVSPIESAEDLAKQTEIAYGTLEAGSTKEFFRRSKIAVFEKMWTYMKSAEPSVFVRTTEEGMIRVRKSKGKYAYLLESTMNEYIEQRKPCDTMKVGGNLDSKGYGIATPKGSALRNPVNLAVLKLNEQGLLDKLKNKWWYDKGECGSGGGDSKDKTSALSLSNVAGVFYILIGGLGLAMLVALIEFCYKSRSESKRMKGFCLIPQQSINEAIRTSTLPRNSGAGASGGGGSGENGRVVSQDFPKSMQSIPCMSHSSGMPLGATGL
T1 sequence (P19490 19-907 L497Y): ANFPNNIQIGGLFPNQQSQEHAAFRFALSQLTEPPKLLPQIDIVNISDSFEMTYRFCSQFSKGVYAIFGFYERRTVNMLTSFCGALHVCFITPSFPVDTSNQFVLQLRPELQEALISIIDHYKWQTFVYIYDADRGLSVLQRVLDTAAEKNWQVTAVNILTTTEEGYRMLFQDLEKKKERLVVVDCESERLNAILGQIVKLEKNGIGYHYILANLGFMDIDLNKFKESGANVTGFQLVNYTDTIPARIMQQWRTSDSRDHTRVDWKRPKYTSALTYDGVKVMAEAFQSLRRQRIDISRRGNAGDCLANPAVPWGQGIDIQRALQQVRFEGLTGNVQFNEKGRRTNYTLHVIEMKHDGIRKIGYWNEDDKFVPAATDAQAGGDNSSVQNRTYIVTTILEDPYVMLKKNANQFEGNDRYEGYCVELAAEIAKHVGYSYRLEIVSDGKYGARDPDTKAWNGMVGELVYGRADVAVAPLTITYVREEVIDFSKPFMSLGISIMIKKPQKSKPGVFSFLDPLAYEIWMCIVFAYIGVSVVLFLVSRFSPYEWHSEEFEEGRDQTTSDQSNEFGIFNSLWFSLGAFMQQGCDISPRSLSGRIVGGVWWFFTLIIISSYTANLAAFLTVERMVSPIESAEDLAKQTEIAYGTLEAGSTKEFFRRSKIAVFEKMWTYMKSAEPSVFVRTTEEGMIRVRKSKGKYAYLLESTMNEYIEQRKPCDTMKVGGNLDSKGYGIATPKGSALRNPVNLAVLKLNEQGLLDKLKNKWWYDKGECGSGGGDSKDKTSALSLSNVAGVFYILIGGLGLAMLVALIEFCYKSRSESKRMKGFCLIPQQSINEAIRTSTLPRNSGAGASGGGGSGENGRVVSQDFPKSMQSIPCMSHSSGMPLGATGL
Sequence of GluATCV*^ΔNTD (P19490 with tags, fused parts or gaps L497Y): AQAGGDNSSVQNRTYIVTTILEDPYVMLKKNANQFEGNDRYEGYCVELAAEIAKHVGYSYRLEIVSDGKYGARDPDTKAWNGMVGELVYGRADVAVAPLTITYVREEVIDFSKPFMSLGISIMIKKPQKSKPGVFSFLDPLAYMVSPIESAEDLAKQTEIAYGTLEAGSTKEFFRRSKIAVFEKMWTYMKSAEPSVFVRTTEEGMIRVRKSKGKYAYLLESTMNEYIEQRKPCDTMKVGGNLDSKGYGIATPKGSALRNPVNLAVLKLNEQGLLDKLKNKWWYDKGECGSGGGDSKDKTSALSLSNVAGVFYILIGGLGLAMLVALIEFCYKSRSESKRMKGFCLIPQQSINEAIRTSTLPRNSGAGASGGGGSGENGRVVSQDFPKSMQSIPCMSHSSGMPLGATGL
Sequence of GluATCV*^ΔNTD (A7K9J5 1-82 partner): as the sequence (A7K9J5 entry or part of it G77S/F78L) above

[Ba+2] [Ba^2+]
Ba^2+-block of the leakage current ([1]; −70 mV, absence of agonist, 500 µM Ba^2+, n = 5): 93.5 ± 1.6%
Maximal Ba^2+-sensitive currents [2]: 1.0 ± 0.3 µA
Block of initial leakage and Glu-evoked currents by Ba^2+ ([2]; 500 µM Ba^2+): could be blocked
Ba^2+-block of the leakage current ([2]; −70 mV, n = 5): 84.4 ± 2.3%
Block of glutamate-induced and leakage currents by Ba^2+ [3]: could be efficiently blocked
Maximal Ba^2+-sensitive currents [3]: 0.8 ± 0.2 µA
Ba^2+-block of the leakage current ([3]; −70 mV, n = 5): 32.9 ± 10.8*** %

N#Cc1cc2nc(O)c(O)nc2cc1[N+](=O)[O-] [CNQX, 6-cyano-7-nitroquinoxaline-2,3-dione]
IC50 [4]: 2200 nM and 2000 nM

N[C@@H](CCC(=O)O)C(=O)O [glutamate, L-glutamate]
Currents in response to glutamate ([1]; 1 mM glutamate): could not elicit any currents
Glutamate-induced fraction of the Ba^2+-block (IGlu/IBa) ([2]; fraction of total Ba^2+-sensitive current, n = 5): 36.4 ± 4.6%
Glu-elicited current amplitude ([2]; −70 mV, n = 10): 0.4 ± 0.3 µA
Response to Glu application [5]: remained insensitive
Glutamate-induced fraction of the Ba^2+-block (IGlu/IBa) ([3]; n = 5): 68.2 ± 5.2** %
Glutamate-induced fraction of the Ba^2+-block (IGlu/IBa) ([3]; n = 5, listed as Glu): 68.2 ± 5.2%
Glu-inducible current amplitude (IGlu) ([3]; n = 5): 0.7 ± 0.2 µA
Imax (GluATCV*^ΔNTD): 1.0 ± 0.26 µA
